Data: US20020161013A1, “Method of local anesthesia and analgesia” (priority 2001, published 2002)
Structures can show the parent of a compound that is named as a salt. Where two headings read alike, the source gives them in different places.

Experiments:
[1] = test system: rabbits; set-up: species or system New Zealand white rabbits; details: rabbit, in vivo
[2] = test system: rabbit eyes; set-up: species or system New Zealand white rabbits; details: in vivo
[3] = test system: rabbits; set-up: species or system New Zealand white rabbits; details: rabbit, in vivo; remark: listed apart in the source
[4] = cited from earlier work
[5] = test system: rabbit eyes; details: in vivo

NC1=N[C@H](O)[C@H]2[C@H]3O[C@]4(O)O[C@@H]([C@@H](O)[C@@]2(N1)[C@@H]4O)[C@]3(O)CO [TTX, tetrodotoxin]
abnormalities in other animals of the group [1]: No significant abnormalities
adverse signs in the TTX-treated eye [1]: conjunctival congestion, hydrops (++) and lacrimation
local anesthesia [1]: local anesthesia to some extent
toxic signs observed [1]: Signs of convulsion, rigidity and death
local anesthesia by retrobulbar injection compared with lidocaine [2]: much more potent
local anesthesia effect [2]: weak effect
local anesthesia in the treated eyes [2]: showed local anesthesia in the treated eyes to various extents
general examination findings [3]: No changes of food-taking pattern, movement, respiration or alertness
toxic signs observed [3]: Signs of convulsion, rigidity and death

CCCCN1CCCCC1C(=O)Nc1c(C)cccc1C (stereo not shown) [bupivacaine]
residual diplopia next morning ([4]; bupivacaine, ophthalmic applications): up to 70 % of patients
duration of action ([4]; bupivacaine, peripheral nerve block): ≤ 24 h

CCN(CC)CC(=O)Nc1c(C)cccc1C [lidocaine, lidocaine hydrochloride, reference compound]
magnitude of ERG b wave versus controls [5]: Neither were differences found
duration of action [2]: 0.34 h
onset [2]: 1.94 min
duration of action ([4]; in vivo): over 20 minutes
onset ([4]; in vivo): about 2 minutes
